Source: ChEMBL document CHEMBL3864160, “Discovery of fluorobenzimidazole HCV NS5A inhibitors” (Bioorg Med Chem Lett, 2016)
pEC50: −log10 of the molar value.

Tests used:
[1] = Oral bioavailability in Sprague-Dawley rat at 3 mg/kg administered via gavage after 0.25 to 24 hrs; type: ADME, organism-based; details: in vivo
[2] = Inhibition of Hepatitis C virus genotype 2a replicon NS5A transfected in human HuH7 cells assessed as decrease in replication of viral replicon after 4 days by luciferase reporter gene assay; type: cell-based, Hepatitis C virus subtype 2a; details: Huh-7, 96 h
[3] = Half life in CD1 mouse at 5 mg/kg, iv after 0.1 to 24 hrs; type: ADME, organism-based; details: in vivo
[4] = test system: Hepatitis C virus (isolate H77); test: Resistance ratio of EC50 for Hepatitis C virus genotype 1a H77 replicon NS5A Y93C mutant to EC50 for Hepatitis C virus genotype 1a H77 replicon NS5A
[5] = test system: Hepatitis C virus (isolate H77); test: Resistance ratio of EC50 for Hepatitis C virus genotype 1a H77 replicon NS5A M28T mutant to EC50 for Hepatitis C virus genotype 1a H77 replicon NS5A
[6] = Cmax in CD1 mouse at 5 mg/kg, po after 0.25 to 24 hrs; type: ADME, organism-based; set-up: dose 5 mg/kg, route oral; details: in vivo
[7] = Cmax in Sprague-Dawley rat at 3 mg/kg, po administered via gavage after 0.25 to 24 hrs; type: ADME, organism-based; set-up: dose 3 mg/kg, route oral; details: in vivo
[8] = AUC in CD1 mouse at 5 mg/kg, po after 0.25 to 24 hrs; type: ADME, organism-based; set-up: time 0.25-24 hr, dose 5 mg/kg, route oral; details: in vivo
[9] = test system: Hepatitis C virus (isolate H77); test: Resistance ratio of EC50 for Hepatitis C virus genotype 1a H77 replicon NS5A Q30R mutant to EC50 for Hepatitis C virus genotype 1a H77 replicon NS5A
[10] = Inhibition of Hepatitis C virus genotype 1a H77 replicon NS5A M28T mutant transfected in human HuH7 cells assessed as decrease in replication of viral replicon after 4 days by luciferase reporter gene assay; type: cell-based, Hepatitis C virus (isolate H77); details: Huh-7, 96 h
[11] = Inhibition of Hepatitis C virus genotype 1b Con1 replicon NS5A transfected in human HuH7 cells assessed as decrease in replication of viral replicon after 4 days by luciferase reporter gene assay; type: cell-based, Hepatitis C virus (isolate Con1); details: Huh-7, 96 h
[12] = test system: Hepatitis C virus (isolate H77); test: Resistance ratio of EC50 for Hepatitis C virus genotype 1a H77 replicon NS5A Y93H mutant to EC50 for Hepatitis C virus genotype 1a H77 replicon NS5A
[13] = Inhibition of Hepatitis C virus genotype 1a H77 replicon NS5A transfected in human HuH7 cells assessed as decrease in replication of viral replicon in presence of 40% human plasma after 4 days by luciferase reporter gene assay; type: cell-based, Hepatitis C virus (isolate H77); details: Huh-7, Plasma, 96 h
[14] = Inhibition of Hepatitis C virus genotype 2b replicon NS5A transfected in human HuH7 cells assessed as decrease in replication of viral replicon after 4 days by luciferase reporter gene assay; type: cell-based, Hepatitis C virus subtype 2b; details: Huh-7, 96 h
[15] = Plasma clearance in CD1 mouse at 5 mg/kg, iv after 0.1 to 24 hrs; type: ADME, organism-based
[16] = Inhibition of Hepatitis C virus genotype 1a H77 replicon NS5A Q30R mutant transfected in human HuH7 cells assessed as decrease in replication of viral replicon after 4 days by luciferase reporter gene assay; type: cell-based, Hepatitis C virus (isolate H77); details: Huh-7, 96 h
[17] = Oral bioavailability in CD1 mouse at 5 mg/kg after 0.25 to 24 hrs; type: ADME, organism-based; details: in vivo
[18] = Inhibition of Hepatitis C virus genotype 1a H77 replicon NS5A transfected in human HuH7 cells assessed as decrease in replication of viral replicon after 4 days by luciferase reporter gene assay; type: cell-based, Hepatitis C virus (isolate H77); details: Huh-7, 96 h
[19] = Inhibition of Hepatitis C virus genotype 1b Con1 replicon NS5A transfected in human HuH7 cells assessed as decrease in replication of viral replicon in presence of 40% human plasma after 4 days by luciferase reporter gene assay; type: cell-based, Hepatitis C virus (isolate Con1); details: Huh-7, Plasma, 96 h
[20] = test system: Hepatitis C virus (isolate H77); test: Ratio of EC50 for Hepatitis C virus genotype 1a H77 replicon NS5A in presence of 40% human plasma to EC50 for Hepatitis C virus genotype 1a H77 replicon NS5A in absence of 40% human plasma
[21] = Plasma clearance in Sprague-Dawley rat at 3 mg/kg, iv administered as bolus dose after 0.1 to 24 hrs; type: ADME, organism-based
[22] = AUC in Sprague-Dawley rat at 3 mg/kg, po administered via gavage after 0.25 to 24 hrs; type: ADME, organism-based; set-up: time upper 24 hr, dose 3 mg/kg, time lower 0.25 hr, route oral; details: in vivo
[23] = Half life in Sprague-Dawley rat at 3 mg/kg, iv administered as bolus dose after 0.1 to 24 hrs; type: ADME, organism-based; details: in vivo
[24] = Inhibition of Hepatitis C virus genotype 3a replicon NS5A transfected in human HuH7 cells assessed as decrease in replication of viral replicon after 4 days by luciferase reporter gene assay; type: cell-based, Hepatitis C virus subtype 3a; details: Huh-7, 96 h
[25] = Half life in CD1 mouse at 5 mg/kg, po after 0.25 to 24 hrs; type: ADME, organism-based; details: in vivo
[26] = Inhibition of Hepatitis C virus genotype 4a replicon NS5A transfected in human HuH7 cells assessed as decrease in replication of viral replicon after 4 days by luciferase reporter gene assay; type: cell-based, Hepatitis C virus subtype 4a; details: Huh-7, 96 h
[27] = AUC in CD1 mouse at 3 mg/kg, po after 0.25 to 24 hrs; type: ADME, organism-based; set-up: time upper 24 hr, dose 3 mg/kg, time lower 0.25 hr, route oral; details: in vivo
[28] = Plasma clearance in CD1 mouse at 3 mg/kg, iv after 0.1 to 24 hrs; type: ADME, organism-based
[29] = Half life in CD1 mouse at 3 mg/kg, iv after 0.1 to 24 hrs; type: ADME, organism-based; details: in vivo
[30] = Oral bioavailability in CD1 mouse at 3 mg/kg after 0.25 to 24 hrs; type: ADME, organism-based; details: in vivo
[31] = Cmax in CD1 mouse at 3 mg/kg, po after 0.25 to 24 hrs; type: ADME, organism-based; set-up: dose 3 mg/kg, route oral; details: in vivo
[32] = AUC in CD1 mouse at 30 mg/kg, po after 0.25 to 24 hrs; type: ADME, organism-based; set-up: time lower 0.25 hr, dose 30 mg/kg, time upper 24 hr, route oral; details: in vivo
[33] = Cmax in CD1 mouse at 30 mg/kg, po after 0.25 to 24 hrs; type: ADME, organism-based; set-up: dose 30 mg/kg, route oral; details: in vivo
[34] = AUC in beagle dog at 2.5 mg/kg, po administered via gavage after 0.25 to 24 hrs; type: ADME, organism-based, Canis lupus familiaris; set-up: dose 2.5 mg/kg, time 0.25-24 hr, route oral; details: in vivo
[35] = Half life in beagle dog at 2.5 mg/kg, po administered via gavage after 0.25 to 24 hrs; type: ADME, organism-based, Canis lupus familiaris; details: in vivo
[36] = Inhibition of Hepatitis C virus genotype 6a replicon NS5A transfected in human HuH7 cells assessed as decrease in replication of viral replicon after 4 days by luciferase reporter gene assay; type: cell-based, Hepatitis C virus subtype 6a; details: Huh-7, 96 h
[37] = Half life in CD1 mouse at 3 mg/kg, po after 0.25 to 24 hrs; type: ADME, organism-based; details: in vivo
[38] = Half life in Sprague-Dawley rat at 3 mg/kg, po administered via gavage after 0.25 to 24 hrs; type: ADME, organism-based; details: in vivo
[39] = Cmax in beagle dog at 2.5 mg/kg, po administered via gavage after 0.25 to 24 hrs; type: ADME, organism-based, Canis lupus familiaris; set-up: dose 2.5 mg/kg, route oral; details: in vivo
[40] = Half life in CD1 mouse at 30 mg/kg, po after 0.25 to 24 hrs; type: ADME, organism-based; details: in vivo
[41] = test system: Hepatitis C virus (isolate Con1); test: Ratio of EC50 for Hepatitis C virus genotype 1b Con1 replicon NS5A in presence of 40% human plasma to EC50 for Hepatitis C virus genotype 1b Con1 replicon NS5A in absence of 40% human plasma
[42] = Half life in CD1 mouse at 15 mg/kg, po after 0.25 to 24 hrs; type: ADME, organism-based; details: in vivo
[43] = Cmax in CD1 mouse at 15 mg/kg, po after 0.25 to 24 hrs; type: ADME, organism-based; set-up: dose 15 mg/kg, route oral; details: in vivo
[44] = AUC in CD1 mouse at 15 mg/kg, po after 0.25 to 24 hrs; type: ADME, organism-based; set-up: time lower 0.25 hr, dose 15 mg/kg, time upper 24 hr, route oral; details: in vivo

Structure (SMILES)	pEC50 [2]	Ratio EC50 [4]	Ratio EC50 [5]	Cmax [7]	Ratio EC50 [9]	pEC50 [10]	pEC50 [11]	Ratio EC50 [12]	pEC50 [13]	pEC50 [14]	pEC50 [16]	pEC50 [18]	pEC50 [19]	AUC [22]	pEC50 [24]	pEC50 [26]	AUC [27]	Cmax [31]	pEC50 [36]	half-life [37]	other results
COC(=O)N[C@H](C(=O)N1CCC[C@H]1c1nc2ccc([C@H]3CC[C@H](c4ccc5nc([C@@H]6CCCN6C(=O)[C@@H](NC(=O)OC)C(C)C)[nH]c5c4)N3c3ccc(C(C)(C)C)cc3)cc2[nH]1)C(C)C	9.81	8	4	60 ng/mL	14	11.10	10.85	239	9.81	11.00	10.57	10.96 to 11.70	9.57	560 ng·h/mL	10.85	11.22					bioavailability [1]: 20%; half-life [3]: 120 min; Cmax [6]: 270 ng/mL; AUC [8]: 1390 ng·h/mL; clearance [15]: 6.33 mL/min/kg; bioavailability [17]: 11%; Ratio EC50 [20]: 10 to 20; clearance [21]: 17.7 mL/min/kg; half-life [23]: 246 min; half-life [25]: 156 min
COC(=O)N[C@H](C(=O)N1CCC[C@H]1C(=O)Nc1ccc([C@H]2CC[C@@H](c3ccc(NC(=O)[C@@H]4CCCN4C(=O)[C@@H](NC(=O)OC)C(C)C)cc3)N2c2ccc(C(C)(C)C)cc2)cc1)C(C)C																	11000 ng·h/mL	570 ng/mL			clearance [28]: 1.83 mL/min/kg; half-life [29]: 660 min; bioavailability [30]: 42%
COC(=O)N[C@H](C(=O)N1CCC[C@H]1c1nc2cc([C@H]3CC[C@H](c4cc5nc([C@@H]6CCCN6C(=O)[C@@H](NC(=O)OC)C(C)C)[nH]c5cc4F)N3c3cc(F)c(N4CCCCC4)c(F)c3)c(F)cc2[nH]1)C(C)C	10.92	4	2	190 ng/mL	3		11.15	27	10.02	11.40	11.10	11.40 to 11.52	9.82	2880 ng·h/mL	11.22	11.15	4410 ng·h/mL	370 ng/mL	11.15	366 min	AUC [32]: 48200 ng·h/mL; Cmax [33]: 3390 ng/mL; AUC [34]: 17200 ng·h/mL; half-life [35]: 330 min; half-life [38]: 348 min; Cmax [39]: 1380 ng/mL; half-life [40]: 330 min
COC(=O)N[C@H](C(=O)N1CCC[C@H]1c1nc2cc([C@H]3CC[C@H](c4cc5nc([C@@H]6CCCN6C(=O)[C@@H](NC(=O)OC)C(C)C)[nH]c5cc4F)N3c3ccc(C(C)(C)C)cc3)c(F)cc2[nH]1)C(C)C	10.01	3	2		3	11.40	11.15	30	9.67	11.05	11.30	11.10 to 11.70	10.02		11.10	11.10			10.82		Ratio EC50 [41]: 15 to 30; Ratio EC50 [20]: 15 to 30
COC(=O)N[C@H](C(=O)N1CCC[C@H]1c1nc2cc([C@H]3CC[C@H](c4cc5[nH]c([C@@H]6CCCN6C(=O)[C@@H](NC(=O)OC)C(C)C)nc5cc4F)N3c3ccc(C(C)(C)C)cc3)c(F)cc2[nH]1)C(C)C																	5790 ng·h/mL	630 ng/mL		264 min	half-life [42]: 288 min; Cmax [43]: 3180 ng/mL; AUC [44]: 36200 ng·h/mL
COC(=O)N[C@H](C(=O)N1CCC[C@H]1c1nc2cc([C@H]3CC[C@H](c4ccc5[nH]c([C@@H]6CCCN6C(=O)[C@@H](NC(=O)OC)C(C)C)nc5c4)N3c3cc(F)c(N4CCCCC4)c(F)c3)ccc2[nH]1)C(C)C	10.89	6	3	50 ng/mL	8	11.00	11.22	163	9.81	11.15	10.60	11.22 to 11.52	9.58	30 ng·h/mL	11.05	11.30	1800 ng·h/mL	220 ng/mL	11.15	234 min	AUC [34]: 1230 ng·h/mL; half-life [35]: 168 min; half-life [42]: 192 min; Cmax [39]: 200 ng/mL; Cmax [43]: 930 ng/mL; AUC [44]: 9250 ng·h/mL
